Biological target: T1, AXL (Homo sapiens, UniProt P30530)
T1 sequence (P30530 26-894): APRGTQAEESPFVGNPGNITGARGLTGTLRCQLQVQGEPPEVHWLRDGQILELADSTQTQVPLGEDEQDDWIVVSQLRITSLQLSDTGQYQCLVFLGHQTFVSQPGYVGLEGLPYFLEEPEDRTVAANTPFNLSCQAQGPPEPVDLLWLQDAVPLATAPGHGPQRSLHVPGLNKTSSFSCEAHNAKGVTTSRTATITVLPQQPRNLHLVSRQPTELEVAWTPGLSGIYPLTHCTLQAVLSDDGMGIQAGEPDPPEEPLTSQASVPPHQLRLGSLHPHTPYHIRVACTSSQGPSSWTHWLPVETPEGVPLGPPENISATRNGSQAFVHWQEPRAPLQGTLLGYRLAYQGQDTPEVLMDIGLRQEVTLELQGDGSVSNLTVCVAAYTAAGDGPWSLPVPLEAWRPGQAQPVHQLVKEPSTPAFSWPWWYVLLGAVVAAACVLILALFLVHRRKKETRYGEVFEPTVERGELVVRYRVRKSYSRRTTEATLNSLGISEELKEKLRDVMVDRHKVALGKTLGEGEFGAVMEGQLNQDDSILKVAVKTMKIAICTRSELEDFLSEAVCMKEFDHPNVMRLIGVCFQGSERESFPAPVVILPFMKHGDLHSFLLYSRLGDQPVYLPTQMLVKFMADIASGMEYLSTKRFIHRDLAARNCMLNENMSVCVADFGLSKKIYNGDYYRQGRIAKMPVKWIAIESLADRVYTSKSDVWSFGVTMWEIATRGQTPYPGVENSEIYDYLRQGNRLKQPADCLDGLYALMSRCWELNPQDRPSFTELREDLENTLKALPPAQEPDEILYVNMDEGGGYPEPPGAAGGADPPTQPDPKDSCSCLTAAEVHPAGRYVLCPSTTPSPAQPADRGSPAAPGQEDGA
Assay: Inhibition of AXL phosphorylation in NCI-H1299 NSCL xenografts (PK/PD)
Assay type: in vivo, mice
Set-up: endogenous in cells; host or cells: NCI-H1299 human NSCLC cells (culture; subcutaneous xenograft in mice)
From the text: Female Nu/Nu mice (6-8 weeks, Charles River Laboratory, Wilmington, Mass.) were maintained 5/cage in microisolator units on a standard laboratory diet (Teklad Labchow, Harlan Teklad, Madison, Wis.). Animals were housed under humidity- and temperature-controlled conditions and the light/dark cycle was set at 12-hour intervals. Mice were quarantined at least 1 week prior to experimental manipulation. Experiments were approved (Protocol 03-023) by the Institutional Animal Care and Use Committee of Teva Pharmaceuticals Inc
Briefly, NCI-H1299 NSCL cells (for AXL studies) or GTL-16 gastric carcinoma cells (for c-Met studies) were collected and resuspended in DMEM medium at density of 5×10^7/mL and an aliquot (100 μL) of the cell suspension (5×10^6 cells) was inoculated subcutaneously to the left flank of each mouse with a 23 g needle. […] At indicated time points post dosing, the mice (3 mice at each time point) were sacrificed by decapitation and blood was collected in 1.5 mL microcentrifuge tubes containing 20 μL of heparin sodium (10,000 unit/mL in H2O, Cat^#0210193191, MP Biomedical, Solon, Ohio) and left on ice briefly. The tubes were centrifuged at 20,817×g (Eppendorf Centrifuge 5417R with a FA45-30-11 rotor) for 8 minutes at 4° C. and the plasma was collected and transferred to 1.5 mL microfuge tubes, which were then stored at −80° C. The tumors were excised and weighed, cut into small pieces with a scalpel and placed into a round-bottom 14 mL tube (Cat^#352059, Becton Dickinson, Franklin, N.J.) on ice. Two volumes of FRAK lysis buffer without detergent [10 mM Tris, pH 7.5, 50 mM sodium chloride, 20 mM sodium fluoride, 2 mM sodium pyrophosphate, 0.1% BSA, plus freshly prepared 1 mM activated sodium vanadate, 4 mM DTT, 1 mM PMSF and the protease inhibitor cocktail III (1:100 dilution, Cat^#539134, Calbiochem, La Jolla, Calif.)] were added to 1 volume of tumor (eg, 500 μL FRAK lysis buffer were added to 250 mg tissue). […] The compound levels in both plasma and tumor lysates were measured by LC-MS/MS. […]

COc1cc2nccc(Oc3ccc(NC(=O)c4cn(C(C)C)c(=O)n(-c5ccc(F)cc5)c4=O)cc3F)c2cc1OC [CEP-40783, 3-(4-Fluorophenyl)-1-isopropyl-2,4-dioxo-1,2,3,4-tetrahydropyrimidine-5-carboxylic acid [4-(6,7-dimethoxyquinolin-4-yloxy)-3-fluorophenyl]-amide]
inhibition of AXL phosphorylation (target inhibition) (0.3 mg/kg, 6 h post dose): ~80% | inhibition of AXL phosphorylation (target inhibition) (1 mg/kg, between 6-24 h): > 90% | inhibition of AXL phosphorylation (10 mg/kg po, up to 48 h post dosing): complete AXL inhibition
